Here are results for twelve compounds from patent publication US12624309B2, “Enol ether properfume” (Firmenich SA, priority 2020, dated 2026).

A short description of this data set: Acid-catalyzed hydrolysis of enol ethers in THF/1 M HCl, percent remaining by GC-FID. Type of data set: physicochemical. Particulars: for rate of hydrolysis / hydrolytic stability compared to corresponding enol ethers prepared from alkyl alcohols / percent remaining, 24 h / percent remaining, 48 h / percent remaining, 72 h / percent remaining, 168 h / percent remaining, 336 h / percent remaining, 504 h / percent remaining, 672 h / percent remaining, initial: THF/1M HCl (80:20 v/v); for rate of hydrolysis / hydrolytic stability compared to corresponding enol ethers prepared from alkyl alcohols: in words; for percent remaining, 24 h / percent remaining, 48 h / percent remaining, 72 h / percent remaining, 168 h / percent remaining, 336 h / percent remaining, 504 h / percent remaining, 672 h / percent remaining, initial: room temperature; for percent remaining, initial: time zero; for enol ether remained after 504 h (21 days): Table 1, THF/1M HCl. As to the method: Each enol ether was dissolved in a 4:1 THF/1 M HCl mixture and the percent remaining over time measured relative to an internal standard.
After mixing, 2 mL of this solution were removed with a volumetric pipet and used to obtain the time zero measurement. 2 mL of 1 M HCl were mixed with the remaining 8 mL of the THF solution. This mixture was divided into 5 mL vials (1 mL per vial). The vials were gently topped with nitrogen and fitted with screw caps around which parafilm was wrapped. The vials were stored at room temperature until analyzed. For analyses, 2 mL of ethyl acetate was added to a vial and mixed. After phase separation, the top phase was collected and washed with saturated sodium carbonate (1 mL). Samples of the organic phase were analyzed by GC-FID. For the time zero sample, 0.5 mL of deionized water was added to the 2 mL taken from the original THF solution. 1 mL of this solution was added to a 5 mL vial and diluted with 2 mL of ethyl acetate and mixed. The top phase was collected and washed with saturated sodium carbonate (1 mL). The top phase then was analyzed by GC-FID. The percent of enol ether remaining was determined by dividing the peak area ratio of the enol ether to internal standard by the ratio measured at time zero.

In the case of `COC(=O)C(C)(C)OC=C(C)c1ccc(C)cc1` [Compound 28, (±)-methyl 2-methyl-2-((2-(p-tolyl)prop-1-en-1-yl)oxy)propanoatemethyl], the “rate of hydrolysis / hydrolytic stability compared to corresponding enol ethers prepared from alkyl alcohols” value is “Slower rates of hydrolysis”; the “percent remaining, 24 h” value worked out at 99.3%; the “percent remaining, 48 h” value is 98.5%; the “percent remaining, 72 h” value is reported as 98.5%. Besides, the “percent remaining, 168 h” value came out at 96.2%; the “percent remaining, 336 h” value came out at 92.1%; the “percent remaining, 504 h” value is 89.7%; the “percent remaining, 672 h” value stood at 85.8%. The “percent remaining, initial” value is 100%.
Take `CCCCCC(CC)OC=Cc1ccccc1` (stereo not shown) [(2-(octan-3-yloxy)vinyl)benzene, reference compound]: the “percent remaining, 24 h” value is on record as 84.9%; the “percent remaining, 48 h” value worked out at 72.0%; the “percent remaining, 72 h” value is recorded as 61.7%; the “percent remaining, 168 h” value was 33.6%. The “percent remaining, 336 h” value was determined as 10%; the “percent remaining, 504 h” value amounted to 4.5%; the “percent remaining, 672 h” value is recorded as 0%; the “percent remaining, initial” value amounted to 100%. In addition, the “enol ether remained after 504 h (21 days)” value is 4.5%.
In the case of `CC/C=C\CCOC(=O)C(C)OC=C(C)c1ccc(OC)cc1` (racemic) [Compound 47, (±)-(Z)-hex-3-en-1-yl 2-((2-(4-methoxyphenyl)prop-1-en-1-yl)oxy)propanoate], the “percent remaining, 24 h” value was found to be 96.6%; the “percent remaining, 48 h” value turned out to be 94.4%; the “percent remaining, 72 h” value worked out at 91.2%; the “percent remaining, 168 h” value stood at 81.6%. Moreover, the “percent remaining, 336 h” value was 65.0%; the “percent remaining, 504 h” value is given as 51.1%; the “percent remaining, 672 h” value stood at 40.0%; the “percent remaining, initial” value is given as 100%.
For the compound `CCC(C)OC(=O)C(C)OC=C(C)c1ccc(OC)cc1` (racemic) [Compound 49, (±)-sec-butyl 2-((2-(4-methoxyphenyl)prop-1-en-1-yl)oxy)propanoate], the “percent remaining, 24 h” value was determined as 96.8%; the “percent remaining, 48 h” value was 94.8%; the “percent remaining, 72 h” value amounted to 93.8%; the “percent remaining, 168 h” value amounted to 87.6%. For the same compound, the “percent remaining, 336 h” value amounted to 76.9%; the “percent remaining, 504 h” value came to 67.6%; the “percent remaining, 672 h” value is reported as 56.2%; the “percent remaining, initial” value came to 100%.
In the case of `CC(=COC(C)(C)CCCC(C)C)c1ccccc1` [(1-(2,6-dimethylheptan-2-yloxy)prop-1-en-2-yl)benzene, reference compound], the “percent remaining, 24 h” value was 92.9%; the “percent remaining, 48 h” value is 85.7%; the “percent remaining, 72 h” value is given as 80.5%; the “percent remaining, 168 h” value worked out at 60.3%. For the same compound, the “percent remaining, 336 h” value is listed as 41.7%; the “percent remaining, 504 h” value was determined as 28.1%; the “percent remaining, 672 h” value is on record as 17.9%; the “percent remaining, initial” value is given as 100%.
For `CC/C=C\CCOC(=O)C(C)OC=Cc1ccccc1` (racemic) [Compound 39, (±)-(Z)-hex-3-en-1-yl 2-(styryloxy)propanoate], the “percent remaining, 24 h” value was determined as 96.3%; the “percent remaining, 48 h” value was determined as 95.3%; the “percent remaining, 72 h” value is 90.7%; the “percent remaining, 168 h” value was 79.6%. The “percent remaining, 336 h” value is given as 67.3%; the “percent remaining, 504 h” value is 53.0%; the “percent remaining, 672 h” value is on record as 41.2%; the “percent remaining, initial” value was found to be 100%.
Regarding `CC(=COCCc1ccccc1)c1ccccc1` [(1-phenethoxyprop-1-en-2-yl)benzene, reference compound], the “percent remaining, 24 h” value amounted to 98.4%; the “percent remaining, 48 h” value is recorded as 96.5%; the “percent remaining, 72 h” value was determined as 93.8%; the “percent remaining, 168 h” value worked out at 86.1%. Further, the “percent remaining, 336 h” value is 72.7%; the “percent remaining, 504 h” value was 59.0%; the “percent remaining, 672 h” value worked out at 43.7%; the “percent remaining, initial” value came to 100%.
Turning to `CC(OC=Cc1ccccc1)C(=O)OCCc1ccccc1` (racemic) [Compound 40, (±)-phenethyl 2-(styryloxy)propanoate], the “percent remaining, 24 h” value is reported as 97.3%; the “percent remaining, 48 h” value is reported as 95.0%; the “percent remaining, 72 h” value is reported as 91.8%; the “percent remaining, 168 h” value turned out to be 78.5%. Besides, the “percent remaining, 336 h” value worked out at 59.0%; the “percent remaining, 504 h” value came to 53.0%; the “percent remaining, 672 h” value is 41.4%; the “percent remaining, initial” value is 100%.
Regarding `CCCCCC(CC)OC(=O)C(C)OC=Cc1ccccc1` (racemic) [Compound 41, (±)-octan-3-yl 2-(styryloxy)propanoate], the “percent remaining, 24 h” value was 99.7%; the “percent remaining, 48 h” value is reported as 99.2%; the “percent remaining, 72 h” value was determined as 98.1%; the “percent remaining, 168 h” value is listed as 94.1%. The “percent remaining, 336 h” value was 91.7%; the “percent remaining, 504 h” value came to 88.4%; the “percent remaining, 672 h” value was 84.4%; the “percent remaining, initial” value is recorded as 100%.
Turning to `CCC(C)OC(=O)C(C)OC=C(C)c1ccc(C)cc1` (racemic) [Compound 46, (±)-sec-butyl 2-((2-(p-tolyl)prop-1-en-1-yl)oxy)propanoate], the “rate of hydrolysis / hydrolytic stability compared to corresponding enol ethers prepared from alkyl alcohols” value is “Slower rates of hydrolysis”; the “percent remaining, 24 h” value amounted to 98.0%; the “percent remaining, 48 h” value came to 97.0%; the “percent remaining, 72 h” value is listed as 95.8%. Moreover, the “percent remaining, 168 h” value turned out to be 90.9%; the “percent remaining, 336 h” value was determined as 82.4%; the “percent remaining, 504 h” value turned out to be 74.5%; the “percent remaining, 672 h” value was 66.6%. For the same compound, the “percent remaining, initial” value stood at 100%.
As to `COC(=O)C(C)(C)OC=Cc1ccccc1` [Compound 10, methyl 2-methyl-2-(styryloxy)propanoate], the “percent remaining, 24 h” value is recorded as 97.2%; the “percent remaining, 48 h” value came out at 95.3%; the “percent remaining, 72 h” value was 93.7%; the “percent remaining, 168 h” value was 86.0%. The “percent remaining, 336 h” value stood at 77%; the “percent remaining, 504 h” value amounted to 70.8%; the “percent remaining, 672 h” value came to 64.1%; the “percent remaining, initial” value is on record as 100%.
Take `CC/C=C\CCOC=Cc1ccc(OC)cc1` [Compound 51, 1-(2-(((Z)-hex-3-en-1-yl)oxy)vinyl)-4-methoxybenzene, reference compound]: the “percent remaining, 24 h” value came out at 89.1%; the “percent remaining, 48 h” value worked out at 80.2%; the “percent remaining, 72 h” value turned out to be 72.4%; the “percent remaining, 168 h” value is reported as 52.5%. Also, the “percent remaining, 336 h” value is 29.1%; the “percent remaining, 504 h” value is listed as 14.6%; the “percent remaining, 672 h” value worked out at 10.1%; the “percent remaining, initial” value is on record as 100%. The “enol ether remained after 504 h (21 days)” value was 14.6%.
